Measurements reported in the METLIN SMRT retention time set (Domingo-Almenara et al. 2019).

Experiment: gradient 5% acetonitrile 3 min, to 50% in 2 min, to 85% in 15 min, held 3 min, 100 µL/min
Conditions: column: Zorbax Extend-C18 2.1 x 50 mm; eluents: water / acetonitrile, 0.1% formic acid
In short: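 Retention time was recorded from adduct peaks, which were picked computationally and each inspected manually. Pure standards ran in mixtures of ~100 molecules on HPLC coupled to a quadrupole time-of-flight mass spectrometer, in positive and negative ionization mode, through a Zorbax Extend-C18 column (2.1 × 50 mm, 1.8 μm) at 100 μL/min. Eluents were water and acetonitrile, each with 0.1% formic acid.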

| RP-LC retention time [s] | Structure (SMILES) |
| --- | --- |
| 643 | CCCc1cc(N2CCN(C(=O)c3ccc(C)s3)CC2)nc2nnc(C)n12 |
| 809 | CC(NC(=O)C1CCN(C(=O)c2ncn3c2COC(c2ccc(F)cc2)C3)CC1)c1ccccc1 (stereo not drawn) |
| 1140 | Cc1cccc(-c2nc(C3CC(=O)N(c4ccc(F)c(Cl)c4)C3)no2)c1 (stereo not drawn) |
| 716 | O=C(Cc1ccccc1Cl)N1CCCN(c2nc3cccnc3o2)CC1 |
| 1270 | Cc1cccc(-c2noc(Cn3ncn4nc(-c5cc(C)ccc5C)cc4c3=O)n2)c1 |
| 664 | Cc1ccc2nc3sc(C(=O)N4CCN(c5ccccn5)CC4)cc3cc2c1 |
| 712 | Cn1cc(C(=O)N2CCC(c3noc(-c4ccccc4)n3)C2)cn1 (stereo not drawn) |
| 849 | COCCN1C(=O)Cc2ccccc2C1C(=O)N1CCN(c2cccc(Cl)c2)CC1 (stereo not drawn) |
| 990 | CN(C)c1cccc(-c2nc(-c3ccc4c(c3)nnn4CCC(=O)N3CCCC3)no2)c1 |
| 702 | O=C1CC(c2ccccc2F)Cc2nc(N3CCN(c4ccccn4)CC3)ncc21 (stereo not drawn) |
| 703 | O=C(c1ccc(F)c(F)c1)N1CCCN(c2cc(-c3ccc4c(c3)OCO4)[nH]n2)CC1 |
| 594 | O=C(NCc1ccc2c(c1)OCO2)C1Cn2cccc2C(=O)N1Cc1cccnc1 (stereo not drawn) |
| 684 | CCNc1nc(C)cc(N2CCN(C(=O)Nc3ccc(C)c(C)c3)CC2)n1 |
| 849 | CCOC(=O)N1CCN(C(=O)CSc2ncnc3c2cnn3-c2ccc(F)cc2)CC1 |
| 1270 | CCn1c(C(=O)N2CCN(c3ccccc3F)CC2)cc2c(-c3cccs3)nn(-c3ccccc3)c21 |
| 870 | CCOC(=O)c1nc(Nc2cc(C)ccc2C)c2ccccc2n1 |
| 966 | CCOC(=O)C1CCN(c2ccc3nnc(CCc4nc(-c5ccc(F)cc5)no4)n3n2)CC1 |
| 776 | COc1ccc(C2=NC3(CCN(C(=O)c4ccc(OC)cc4OC)CC3)NC2=O)cc1 |
| 734 | Cc1oc(C2CCN(S(=O)(=O)c3cccc(C#N)c3)CC2)nc1C(=O)N1CCOCC1 |

| RP-LC retention time [s] | Structure (SMILES) |
| --- | --- |
| 653 | Cc1ccc(NC(=O)N2CCN(c3cnn4c(C5CC5)nnc4c3)CC2)cc1 |
| 703 | O=C(NCC1CCCO1)c1csc(N2CCN(c3cccc(Cl)c3)CC2)n1 (stereo not drawn) |
| 814 | O=C(Cn1c(=O)c2cc(-c3ccco3)nn2c2ncccc21)Nc1ccc(F)cc1 |
| 730 | O=C(Nc1cccc(-c2ccc(N3CCOCC3)nn2)c1)Nc1ccccc1Cl |
| 875 | COc1ccc(-c2cc3nn(CC(=O)NCc4cccc(OC)c4)c(=O)n3c(C)n2)cc1 |
| 1120 | Cc1ccccc1-c1noc(CN2N=NC3C(=O)N(c4ccc5c(c4)CCC5)C(=O)C32)n1 (stereo not drawn) |
| 882 | CC1Sc2ccc(S(=O)(=O)N3CCC(C(=O)N4CCc5ccccc5C4)CC3)cc2NC1=O (stereo not drawn) |
| 792 | COc1cccc(NC(=O)Cn2nc(C(=O)N3CCCC3)c3ccccc32)c1 |
| 791 | Cc1ccc(F)cc1NS(=O)(=O)c1cc(-c2[nH]ncc2C(=O)N2CCCCC2)oc1C |
| 656 | Cc1ccc(Nc2nc(N3CCN(CCO)CC3)nc3c2C(=O)CCC3)cc1 |
| 925 | COc1ccccc1-c1noc(C2CCCN2C(=O)Nc2ccc(C)c(C)c2)n1 (stereo not drawn) |
| 678 | O=C(Nc1cccc(-c2nc3ncccc3o2)c1)[C@@H]1OCCN(C2CC2)[C@H]1c1ccccc1 |
| 723 | COc1ccc(NC(=O)C2CCN(c3nnc4ccc(Cl)cn34)CC2)c(OC)c1 |
| 824 | Cc1ccc(NC(=O)C2CCCN(S(=O)(=O)c3c[nH]c(C(=O)N4CCCC4)c3)C2)nc1 (stereo not drawn) |
| 1230 | CCCCn1c(=O)c2ccccc2n(Cc2nc(-c3cccc(C)c3)no2)c1=O |
| 718 | Clc1ccc(Cc2nc3nc4c(c(N5CCN(c6ccccn6)CC5)n3n2)CCCC4)cc1 |
| 954 | Cc1ccc(-c2cc3c4nnc(SCC(=O)NCCc5ccccc5)n4ccn3n2)cc1C |
| 716 | Cn1c(C2CCN(C(=O)c3ccc(C(F)(F)F)s3)C2)nc2cccnc21 (stereo not drawn) |
| 608 | CN1CCN(C(=O)C2(C)CC(c3ccccc3)=NO2)CC1 (stereo not drawn) |

The next lines start with the compound.

| Structure (SMILES) | RP-LC retention time [s] |
| --- | --- |
| Fc1ccc(-c2noc(Cc3nc(-c4ccc(Cl)cc4)cs3)n2)cc1 | 1310 |
| COc1ccc(C(C)NC(=O)C2=C3CCCN3c3ccccc3S2(=O)=O)cc1OC (stereo not drawn) | 779 |
| COc1cc(-c2nc3ncccn3c2NC2CCCCCC2)cc(OC)c1OC | 790 |
| CCOC(=O)c1coc(NC(=O)Nc2cccs2)n1 | 706 |
| COCCc1noc(C2CN(C(=O)c3ccoc3)C2)n1 | 629 |
| CCOC(=O)Cc1ccc(NC(=O)N2CCN(CC)c3ncccc32)cc1 | 641 |
| Cn1cc(CC(=O)NCC2CC2)c2cccnc21 | 593 |
| COc1ccc(/C=C/c2nc3sc4c(c3c(=O)o2)CCCC4)cc1OC | 1250 |
| O=C(NCc1ccc(Cl)cc1)C1CCN(c2cncnc2N2CCOCC2)CC1 | 647 |
| Cc1nn(CC(=O)N2CCC3(CC2)OCCO3)c(=O)c2nc(-c3ccccc3)sc12 | 970 |
| Cc1oc2c(c1C(=O)Nc1ccc(F)cc1Br)C1=NC(C)(C)CN1C=N2 | 671 |
| O=C(CSc1ncccc1-c1noc(C2CCC2)n1)N1CCCCC1 | 979 |
| CCOc1ccc(S(=O)(=O)N2CCCC(C(=O)NCC3CCCO3)C2)cc1 (stereo not drawn) | 788 |
| O=C(C1CCCO1)N1CCCN(Cc2nc(-c3ccc(Cl)cc3)no2)CC1 (stereo not drawn) | 706 |
| Cc1csc(-c2csc(S(=O)(=O)N(C)Cc3ccccc3)c2)n1 | 1090 |
| CCn1nc(C)c2ccn(CC(=O)NCc3ccc(Br)cc3)c(=O)c21 | 797 |
| Cc1cccc2c(C(N)=O)cc(=O)[nH]c12 | 596 |
| COC(=O)C1=C(C)NC(C)=C(C(=O)OCCN2CCN(C(c3ccccc3)c3ccccc3)CC2)C1c1cccc([N+](=O)[O-])c1 (stereo not drawn) | 1020 |
| COc1ccc(-c2nc(-c3ccc4c(c3)nnn4CCN(C)C)no2)c(C)c1 | 700 |
| Cc1cc(-c2nnc(-c3ccco3)o2)c(C)n1CC(=O)NCc1ccccc1Cl | 863 |
| O=c1c2cnc3nc(-c4ccc(Cl)cc4)nn3c2ccn1CCO | 716 |
| COc1ccc(OCC(=O)Nc2nc(C)cc(C)c2-c2noc(C)n2)cc1 | 783 |
| c1ccc(-c2n[nH]c(CC3CCNC3)n2)cc1 (stereo not drawn) | 570 |
| CCCNC(=O)c1cc(=O)[nH]c2ccc(F)cc12 | 635 |
| c1cncc(-c2noc(COC3CCCN(C4CCCC4)C3)n2)c1 (stereo not drawn) | 585 |

| Structure (SMILES) | RP-LC retention time [s] |
| --- | --- |
| Cc1ccc(N2CCC(NC(=O)C3CCCCC3)C2=O)cc1 (stereo not drawn) | 520 |
| COc1ccc(CN2CC[C@@H]3CN(S(C)(=O)=O)[C@@H]3C2)cc1C | 617 |
| CCOC(=O)c1cc(S(=O)(=O)N2CCCC2C(=O)Nc2cc(C)cc(C)c2)cn1C (stereo not drawn) | 1020 |
| COCCNC(=O)CSc1cn(CC(=O)N2CC(C)OC(C)C2)c2ccccc12 (stereo not drawn) | 709 |
| CC1(C)CC(=O)c2cn(-c3ccc(F)cc3)c(=O)c(C(=O)Nc3ccccc3F)c2C1 | 1070 |
| CCN(C(=O)Cc1c(C(=O)O)c(C)cn1CC)c1cc(C)ccc1C | 892 |
| CC1CCCCN1Cc1nc(-c2ccc(N3CCSCC3)nc2)no1 (stereo not drawn) | 642 |
| O=C(Nc1ccccc1)N1CC(Oc2ccc(-c3nc(-c4ccccc4)no3)cc2)C1 | 1150 |
| Cc1cccc(CNC(=O)c2csc(C(=O)NC3CC3)n2)c1 | 824 |
| CC(C)Oc1ccc(CNC(=O)C2CCN(S(=O)(=O)c3cn(C(C)C)cn3)CC2)cc1 | 802 |
| Cc1noc([C@@H]2CC(F)(F)CN2C(=O)c2cnc[nH]2)n1 | 582 |
| COCCn1c(CCCC(=O)NCc2ccc(C(C)C)cc2)nc2cccnc21 | 741 |
| COC(=O)c1cccc(C(=O)Nc2cccc(Cl)c2C)n1 | 976 |
| CC(C)NC(=O)C1CCCN(c2nc3ncn(CC(=O)Nc4ccc(Cl)cc4)c(=O)c3s2)C1 (stereo not drawn) | 719 |
| CCN1CCC(N(Cc2ccc3c(c2)OCO3)C(=O)Nc2ccc(OC)c(OC)c2)CC1 | 616 |
| O=C1NCCOc2ccc(NS(=O)(=O)c3ccc(F)c(Cl)c3)cc21 | 685 |
| CCN(CC)S(=O)(=O)c1ccc2c(c1)N(CC(=O)N(C)Cc1ccco1)C(=O)C1CCCCN21 (stereo not drawn) | 959 |
| O=C(Nc1cccc2c1CCCC2)C1CCN(S(=O)(=O)c2cccc3nonc23)CC1 | 990 |
| COCCCNC(=O)C1CCCN(C(=O)c2cccc(C(F)(F)F)c2)C1 (stereo not drawn) | 698 |
| Cc1ccc(CNC(=O)c2ccc3c(c2)N(C(=O)c2ccc(F)cc2)CC3)o1 | 883 |
| CCN(CC)S(=O)(=O)c1ccc2c(c1)N(CC(=O)N(C)Cc1ccccc1)C(=O)C1CCCCN21 (stereo not drawn) | 895 |
| CC(C)c1ccc(C(=O)N2CCCC2COc2ccc(C(=O)NC3CC3)cc2)cc1 (stereo not drawn) | 910 |
| C=Cc1ccc(Cn2cccc(S(=O)(=O)N3CCCC3)c2=O)cc1 | 886 |
| Cc1cc(C(=O)NC(C)CCc2ccccc2)n(-c2ccccc2)n1 (stereo not drawn) | 942 |
| COc1ccc(-c2nc3ccc(Cl)cn3c2Nc2ccc(C)cc2)cc1 | 838 |
